Assay results as given in ChEMBL document CHEMBL3627608, “Crystal structures of human RIP2 kinase catalytic domain complexed with ATP-competitive inhibitors: Foundations for understanding inhibitor selectivity” (Bioorg Med Chem, 2015).

Assays:
[1] = target: T1, Ephrin type-B receptor 3 (Homo sapiens) (UniProt P54753); assay: Inhibition of EPHB3 (unknown origin) at 10 uM after 120 mins P33 radiolabeled kinase activity assay
T1 sequence (whole entry): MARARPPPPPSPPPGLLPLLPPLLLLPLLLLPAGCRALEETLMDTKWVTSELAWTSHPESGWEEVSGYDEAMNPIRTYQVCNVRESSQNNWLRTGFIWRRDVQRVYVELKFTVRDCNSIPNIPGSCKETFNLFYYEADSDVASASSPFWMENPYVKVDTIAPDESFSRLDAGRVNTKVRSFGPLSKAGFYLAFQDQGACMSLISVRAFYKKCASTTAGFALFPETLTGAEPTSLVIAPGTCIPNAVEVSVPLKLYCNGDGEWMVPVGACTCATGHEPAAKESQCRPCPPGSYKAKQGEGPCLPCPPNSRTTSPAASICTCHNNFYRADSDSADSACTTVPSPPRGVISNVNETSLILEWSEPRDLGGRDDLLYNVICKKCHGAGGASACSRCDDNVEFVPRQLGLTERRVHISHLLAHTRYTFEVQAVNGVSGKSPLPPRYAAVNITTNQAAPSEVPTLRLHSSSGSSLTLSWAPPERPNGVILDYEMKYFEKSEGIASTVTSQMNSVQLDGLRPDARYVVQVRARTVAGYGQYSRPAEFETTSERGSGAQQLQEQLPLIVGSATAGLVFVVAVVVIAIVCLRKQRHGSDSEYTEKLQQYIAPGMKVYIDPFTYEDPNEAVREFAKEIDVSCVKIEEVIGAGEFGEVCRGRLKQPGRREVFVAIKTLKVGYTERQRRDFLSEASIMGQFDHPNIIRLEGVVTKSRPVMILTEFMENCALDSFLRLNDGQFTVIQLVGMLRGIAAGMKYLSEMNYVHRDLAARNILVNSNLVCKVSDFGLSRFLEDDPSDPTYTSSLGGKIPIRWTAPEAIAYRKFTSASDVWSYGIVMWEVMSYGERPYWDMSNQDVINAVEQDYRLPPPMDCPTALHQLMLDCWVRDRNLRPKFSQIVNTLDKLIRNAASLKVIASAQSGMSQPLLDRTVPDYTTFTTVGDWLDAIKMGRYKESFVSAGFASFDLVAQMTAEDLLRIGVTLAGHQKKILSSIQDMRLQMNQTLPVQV

[2] = target: Receptor-type tyrosine-protein kinase FLT3 (Homo sapiens) (UniProt P36888); assay: Inhibition of FLT3 (unknown origin) at 10 uM after 120 mins P33 radiolabeled kinase activity assay
Sequence of Receptor-type tyrosine-protein kinase FLT3 (Homo sapiens) (P36888 whole entry): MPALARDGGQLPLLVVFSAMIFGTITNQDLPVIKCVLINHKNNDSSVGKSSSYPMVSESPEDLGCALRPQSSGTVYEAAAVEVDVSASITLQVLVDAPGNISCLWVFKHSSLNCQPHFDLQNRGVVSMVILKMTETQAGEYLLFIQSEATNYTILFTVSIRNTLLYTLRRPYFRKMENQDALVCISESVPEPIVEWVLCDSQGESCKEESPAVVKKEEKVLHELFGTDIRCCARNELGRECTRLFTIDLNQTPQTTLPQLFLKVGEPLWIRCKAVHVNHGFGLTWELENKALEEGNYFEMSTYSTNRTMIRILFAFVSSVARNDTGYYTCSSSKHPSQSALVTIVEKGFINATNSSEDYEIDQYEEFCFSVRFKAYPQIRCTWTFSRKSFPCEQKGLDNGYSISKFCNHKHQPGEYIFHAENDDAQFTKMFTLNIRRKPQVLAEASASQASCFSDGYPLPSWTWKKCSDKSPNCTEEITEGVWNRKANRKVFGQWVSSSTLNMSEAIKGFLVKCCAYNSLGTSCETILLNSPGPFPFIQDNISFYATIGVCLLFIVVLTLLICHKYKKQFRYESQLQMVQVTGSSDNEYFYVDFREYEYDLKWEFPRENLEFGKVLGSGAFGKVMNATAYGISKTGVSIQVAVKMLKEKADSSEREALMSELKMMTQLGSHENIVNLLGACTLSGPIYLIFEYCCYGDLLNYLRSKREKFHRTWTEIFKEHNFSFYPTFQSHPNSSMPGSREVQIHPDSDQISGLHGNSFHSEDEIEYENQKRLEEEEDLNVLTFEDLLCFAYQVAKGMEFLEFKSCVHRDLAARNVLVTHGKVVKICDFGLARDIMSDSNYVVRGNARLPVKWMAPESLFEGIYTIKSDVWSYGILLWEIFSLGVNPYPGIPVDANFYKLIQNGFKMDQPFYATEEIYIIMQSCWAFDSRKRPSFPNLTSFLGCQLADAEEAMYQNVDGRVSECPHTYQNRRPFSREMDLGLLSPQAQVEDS

[3] = target: T2, Serine/threonine-protein kinase Nek9 (Homo sapiens) (UniProt Q8TD19); assay: Inhibition of NEK9 (unknown origin) at 10 uM after 120 mins P33 radiolabeled kinase activity assay
T2 sequence (whole entry): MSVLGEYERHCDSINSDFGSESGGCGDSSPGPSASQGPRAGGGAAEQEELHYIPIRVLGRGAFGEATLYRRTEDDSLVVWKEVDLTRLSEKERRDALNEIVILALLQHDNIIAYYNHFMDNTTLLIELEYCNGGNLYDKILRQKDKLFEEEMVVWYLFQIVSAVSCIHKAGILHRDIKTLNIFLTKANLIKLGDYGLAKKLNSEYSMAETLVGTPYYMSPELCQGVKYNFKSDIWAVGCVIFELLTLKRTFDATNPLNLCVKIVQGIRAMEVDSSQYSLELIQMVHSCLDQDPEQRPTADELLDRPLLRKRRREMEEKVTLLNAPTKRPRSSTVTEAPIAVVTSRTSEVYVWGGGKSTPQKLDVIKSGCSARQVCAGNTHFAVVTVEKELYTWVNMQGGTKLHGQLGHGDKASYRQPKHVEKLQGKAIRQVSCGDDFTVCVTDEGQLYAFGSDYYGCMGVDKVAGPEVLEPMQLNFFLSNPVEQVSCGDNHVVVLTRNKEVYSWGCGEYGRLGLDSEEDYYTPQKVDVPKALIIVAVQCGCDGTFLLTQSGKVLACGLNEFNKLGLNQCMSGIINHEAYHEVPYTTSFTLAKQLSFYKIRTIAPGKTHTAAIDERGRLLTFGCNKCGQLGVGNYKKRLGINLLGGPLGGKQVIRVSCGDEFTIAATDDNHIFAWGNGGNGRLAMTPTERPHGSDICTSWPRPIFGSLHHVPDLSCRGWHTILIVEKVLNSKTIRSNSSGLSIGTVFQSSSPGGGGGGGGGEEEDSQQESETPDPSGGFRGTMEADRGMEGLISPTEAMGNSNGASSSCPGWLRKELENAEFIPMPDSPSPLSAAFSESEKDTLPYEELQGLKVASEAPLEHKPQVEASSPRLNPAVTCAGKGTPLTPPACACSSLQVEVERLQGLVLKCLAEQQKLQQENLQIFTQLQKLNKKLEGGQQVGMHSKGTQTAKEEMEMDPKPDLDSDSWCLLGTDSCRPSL

[4] = target: Platelet-derived growth factor receptor alpha (Homo sapiens) (UniProt P16234); assay: Inhibition of PDGFRalpha (unknown origin) at 10 uM after 120 mins P33 radiolabeled kinase activity assay
Sequence of Platelet-derived growth factor receptor alpha (Homo sapiens) (P16234 whole entry): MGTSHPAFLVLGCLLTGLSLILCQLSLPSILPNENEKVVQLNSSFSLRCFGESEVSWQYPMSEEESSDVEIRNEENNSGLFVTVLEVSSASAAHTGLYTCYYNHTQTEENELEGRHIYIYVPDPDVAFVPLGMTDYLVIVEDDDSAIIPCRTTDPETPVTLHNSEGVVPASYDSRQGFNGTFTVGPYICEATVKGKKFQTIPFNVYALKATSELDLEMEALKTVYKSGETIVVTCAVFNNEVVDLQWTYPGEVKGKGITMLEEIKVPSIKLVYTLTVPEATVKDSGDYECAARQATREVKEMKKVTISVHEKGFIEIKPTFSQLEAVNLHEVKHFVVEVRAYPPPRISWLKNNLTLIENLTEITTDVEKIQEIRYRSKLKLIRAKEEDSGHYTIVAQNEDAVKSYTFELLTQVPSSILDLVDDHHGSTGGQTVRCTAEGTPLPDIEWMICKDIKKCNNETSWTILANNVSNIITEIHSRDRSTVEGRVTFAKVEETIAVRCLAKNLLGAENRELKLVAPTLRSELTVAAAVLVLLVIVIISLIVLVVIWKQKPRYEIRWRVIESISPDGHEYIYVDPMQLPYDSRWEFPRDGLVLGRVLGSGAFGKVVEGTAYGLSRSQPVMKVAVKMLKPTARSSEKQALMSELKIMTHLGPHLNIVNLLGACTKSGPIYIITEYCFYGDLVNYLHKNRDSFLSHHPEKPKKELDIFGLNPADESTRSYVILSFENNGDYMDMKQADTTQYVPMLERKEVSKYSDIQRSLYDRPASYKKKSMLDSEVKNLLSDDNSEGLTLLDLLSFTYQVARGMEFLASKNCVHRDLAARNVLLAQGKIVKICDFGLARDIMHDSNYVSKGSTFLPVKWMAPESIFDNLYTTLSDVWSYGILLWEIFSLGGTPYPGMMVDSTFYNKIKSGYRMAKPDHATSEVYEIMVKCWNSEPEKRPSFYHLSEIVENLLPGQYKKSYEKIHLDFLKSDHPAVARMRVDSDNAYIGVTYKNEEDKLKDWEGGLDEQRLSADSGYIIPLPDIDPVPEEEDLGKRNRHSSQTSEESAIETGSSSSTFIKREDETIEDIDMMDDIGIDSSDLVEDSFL

[5] = target: T3, 3-phosphoinositide-dependent protein kinase 1 (Homo sapiens) (UniProt O15530); assay: Inhibition of PDK1 (unknown origin) at 10 uM after 120 mins P33 radiolabeled kinase activity assay
T3 sequence (whole entry): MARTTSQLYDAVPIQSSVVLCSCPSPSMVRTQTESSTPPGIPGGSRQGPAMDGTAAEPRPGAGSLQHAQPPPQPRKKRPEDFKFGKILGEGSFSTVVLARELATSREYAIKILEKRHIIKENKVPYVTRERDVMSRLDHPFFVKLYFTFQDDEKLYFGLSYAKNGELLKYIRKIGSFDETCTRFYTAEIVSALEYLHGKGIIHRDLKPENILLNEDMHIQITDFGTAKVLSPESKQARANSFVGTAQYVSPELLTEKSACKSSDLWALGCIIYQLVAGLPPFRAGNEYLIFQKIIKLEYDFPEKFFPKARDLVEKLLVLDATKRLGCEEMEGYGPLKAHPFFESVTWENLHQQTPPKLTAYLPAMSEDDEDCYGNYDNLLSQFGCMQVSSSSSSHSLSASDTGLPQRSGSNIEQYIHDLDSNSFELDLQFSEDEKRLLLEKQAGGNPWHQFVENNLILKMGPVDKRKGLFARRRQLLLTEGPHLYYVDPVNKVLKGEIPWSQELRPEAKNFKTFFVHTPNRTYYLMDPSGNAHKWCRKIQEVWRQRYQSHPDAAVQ

[6] = target: Serine/threonine-protein kinase pim-2 (Homo sapiens) (UniProt Q9P1W9); assay: Inhibition of PIM2 (unknown origin) at 10 uM after 120 mins P33 radiolabeled kinase activity assay
Sequence of Serine/threonine-protein kinase pim-2 (Homo sapiens) (Q9P1W9 whole entry, looked up): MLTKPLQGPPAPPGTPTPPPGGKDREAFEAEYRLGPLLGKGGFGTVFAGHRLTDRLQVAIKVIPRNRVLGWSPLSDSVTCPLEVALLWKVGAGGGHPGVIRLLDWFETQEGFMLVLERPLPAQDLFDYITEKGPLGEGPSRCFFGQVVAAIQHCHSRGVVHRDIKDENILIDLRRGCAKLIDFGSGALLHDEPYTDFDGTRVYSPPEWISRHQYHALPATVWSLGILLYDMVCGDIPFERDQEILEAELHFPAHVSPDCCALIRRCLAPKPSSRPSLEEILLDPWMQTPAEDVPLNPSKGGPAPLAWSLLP

| inhibition [1] [%] | inhibition [2] [%] | inhibition [4] [%] | inhibition [5] [%] | inhibition [6] [%] | SMILES | inhibition [3] [%] |
| --- | --- | --- | --- | --- | --- | --- |
| 7.1 | 95.7 | 94.1 | 7.26 | 6.09 | CS(=O)(=O)c1cccc(Nc2nccc(-c3sc(N4CCOCC4)nc3-c3cccc(NS(=O)(=O)c4c(F)cccc4F)c3)n2)c1 | 100 |
| 5.87 | 27.6 | 17.2 | 4.43 | 0.63 | COCCNC(=O)c1ccc2c(c1)nc(-c1cnc(-c3ccc(Cl)cc3)[nH]1)n2CCOC | -6.23 |
| 93.3 | 98.6 | 98.3 | 8.32 | 3.72 | CC(C)(C)c1cc(NC(=O)Nc2ccc(Oc3ccncc3)cc2)no1 | 20.9 |
